Laboratory results as given in US20030180355A1, “Combination therapy for hypertension” (priority 2001, published 2003).
Marks after values point to notes of the source that are not given here.

What was measured:
[1] = tested on: uninephrectomized anesthetized rats; test: Model of acute angiotensin-mediated renal hypertension in anesthetized rats; assay type: in vivo, Sprague-Dawley rats
Description: Male Sprague-Dawley rats, weighing 250-300 g, were anaesthetized with pentobarbital sodium (35 mg/kg, i.p.) and placed on a thermic blanket. The temperature was maintained at 37° C. with a thermoregulator via a rectal probe. The animals were tracheotomized to facilitate spontaneous breathing. A polyethylene catheter was placed in the left jugular vein to allow for infusion of pentobarbital sodium to maintain anesthesia. The left femoral vein and artery were cannulated with polyethylene catheters to allow drugs administration and to monitor blood pressure, respectively.
The animals then underwent a left nephrectomy by excising the left kidney via a flank incision. The right kidney and renal vein, artery and ureter then were exposed via a right retroperitoneal incision, under a dissecting microscope. Silk threads were placed around both vessels and ureter. The cavity was then covered with Vaseline oil. See Recordati, et al. 2000, J. Hypertension, 18:1277-1287.
ECG (lead II) was recorded by means of subcutaneous electrodes. After 30-60 minutes of basal recordings of arterial blood pressure and heart rate the threads around the renal vessels and ureter were tied close to the renal hilum to induce complete renal ischemia of the right kidney. After 2 hours of ischemia (designed as “120” in Tables 1-4), the threads were removed to allow renal reperfusion and urine output. The reopening of the renal hilum and restoration of renal circulation, induced an increase in blood pressure that peaked 5-10 minutes and lasted about 60 minutes. Drugs (vehicle, enalapril (100 μg/kg), lercanidipine (10 μg/kg), or both lercanidipine (10 μg/kg) and enalapril (100 μg/kg)) were administered intravenously at 5 minutes after reperfusion began (defined as 125 in Tables 4-7).
Statistical analysis was performed during the reperfusion time (time 125-180 minutes). To evaluate the statistical differences among the treatment groups, data were analyzed using a three-way ANOVA (analysis of variance) with repeated measures on factor time and pre-planned multiple comparisons. Statistical analysis was performed by means of general linear model procedure (GLM) with SAS software version 6.12.

[2] = tested on: patients with a sitting diastolic blood pressure (SDBP) of 95-109 mm Hg; test: Clinical study, factorial design, randomized double-blind placebo-controlled, 8 weeks; assay type: in vivo, human; conditions: for Therapeutic response rate, study participants with SDBP < 90 mm Hg / Change in SSBP / Change in SDBP: 8 weeks; for Change in SSBP / Change in SDBP: vs baseline, response surface analysis
Description: A multi-center, randomized, double-blind, placebo-controlled, parallel groups, factorial design trial was conducted. After a 14-day (±3 days) screening/washout period during which patients were washed from ongoing antihypertensive therapy, eligible patients with a sitting diastolic blood pressure (SDBP) of 95-109 mm Hg, entered the 28 day (±3 days) single-blind placebo run-in period during which they received placebo once-daily. Patients who were not responsive to this treatment and whose SDBP was 95-109 mm Hg, were randomized into an eight-week double-blind treatment phase. Baseline measurements were taken on Study Day 0 with post-therapy assessments during the double blind period scheduled on Study Days 14, 28, 42, and 56. Laboratory tests were conducted prior to the beginning of the screening period and on study Day 0 as well as at the end of the study.
The number of patients screened was greater than 800; 798 entered the 4-week single-blind placebo period, and 663 eligible patients were randomized into the 8-week double-blind treatment. The number in parenthesis represents the number of patients in each group available for efficacy evaluation.
The patients were randomized into one of the above noted 12 treatment groups. Tablets of lercanidipine (5 and 10 mg) and enalapril (2.5 mg) were encapsulated in the appropriate doses, in order to assure double-blind conditions. All tablets were of commercial origin except for the 5 mg lercanidipine, which were prepared in accordance with Table 3.
Patients were instructed to take one capsule of the study medication once daily 15 minutes before breakfast, between 6 and 10 am. All medications were to be withheld on mornings of clinic visits until after blood pressure evaluations at 22-26 hours following the previous day's dose of study medication.
1. Trough (Minimum) (24±2 hours post-dose) sitting diastolic blood pressure (SDBP)
2. Trough (24±2 hours post-dose) sitting systolic blood pressure (SSBP)
4. Percent of patients with SDBP<90 mm Hg
The primary efficacy variable was the change from baseline to mean trough SDBP after 8 weeks of double-blind treatment. The analysis was performed in an “intent-to-treat” fashion, including all randomized patients who had received at least one dose of double-blind treatment, and had at least one post-baseline SDBP measurement 18-48 hours post-dose. In case of premature withdrawal from the study the last observation carried forward (LOCF) algorithm was applied (“end point analysis”).
The overall treatment comparison was performed using an analysis of covariance (ANCOVA) with treatment and centers as main effects and baseline value as covariate.
An additional ANOVA was performed using the factorial model in order to test for the interaction of lercanidipine dose and enalapril dose at each time-point.
The number of patients who discontinued the study because of an adverse event is reported in parenthesis.

[3] = lercanidipine 10 μg/kg i.v., time 0 min, basal
[4] = lercanidipine 10 μg/kg i.v., time 120 min, end of ischemia, before drug
[5] = lercanidipine 10 μg/kg i.v., time 125 min, reperfusion, before drug
[6] = lercanidipine 10 μg/kg i.v., time 130 min, drug given at 125 min
[7] = lercanidipine 10 μg/kg i.v., time 135 min, drug given at 125 min
[8] = lercanidipine 10 μg/kg i.v., time 150 min, drug given at 125 min
[9] = lercanidipine 10 μg/kg i.v., time 165 min, drug given at 125 min
[10] = lercanidipine 10 μg/kg i.v., time 180 min, drug given at 125 min
[11] = lercanidipine 5 mg once daily, 54 patients randomized
[12] = lercanidipine 10 mg once daily, 57 patients randomized
[13] = lercanidipine 20 mg once daily, 54 patients randomized
[14] = enalapril 100 μg/kg i.v., time 0 min, basal
[15] = enalapril 100 μg/kg i.v., time 120 min, end of ischemia, before drug
[16] = enalapril 100 μg/kg i.v., time 125 min, reperfusion, before drug
[17] = enalapril 100 μg/kg i.v., time 130 min, drug given at 125 min
[18] = enalapril 100 μg/kg i.v., time 135 min, drug given at 125 min
[19] = enalapril 100 μg/kg i.v., time 150 min, drug given at 125 min
[20] = enalapril 100 μg/kg i.v., time 165 min, drug given at 125 min
[21] = enalapril 100 μg/kg i.v., time 180 min, drug given at 125 min
[22] = enalapril 5 mg once daily, 55 patients randomized
[23] = enalapril 10 mg once daily, 55 patients randomized

COC(=O)C1=C(C)NC(C)=C(C(=O)OC(C)(C)CN(C)CCC(c2ccccc2)c2ccccc2)C1c1cccc([N+](=O)[O-])c1 (stereo not shown) [lercanidipine, methyl 1,1,N-trimethyl-N-(3,3-diphenylpropyl)-2-aminoethyl 1,4-dihydro-2,6-dimethyl-4-(3-nitrophenyl)pyridine-3,5-dicarboxylate]
DBP (diastolic blood pressure) [1, 3]: 69.8 ± 2.5 mmHg | MBP (mean blood pressure) [1, 3]: 83.3 ± 2.8 mmHg | SBP (systolic blood pressure) [1, 3]: 110.4 ± 3.6 mmHg | DBP (diastolic blood pressure) [1, 4]: 70.6 ± 5.4 mmHg | MBP (mean blood pressure) [1, 4]: 85.3 ± 5.7 mmHg | SBP (systolic blood pressure) [1, 4]: 114.5 ± 6.5 mmHg | DBP (diastolic blood pressure) [1, 5]: 119.3 ± 5.2 mmHg | MBP (mean blood pressure) [1, 5]: 135.4 ± 6.4 mmHg | SBP (systolic blood pressure) [1, 5]: 167.6 ± 8.9 mmHg | DBP (diastolic blood pressure) [1, 6]: 97.1 ± 3.1 c mmHg | MBP (mean blood pressure) [1, 6]: 111.5 ± 3.2 c mmHg | SBP (systolic blood pressure) [1, 6]: 140.4 ± 3.8 b mmHg | DBP (diastolic blood pressure) [1, 7]: 93.1 ± 4.0 c mmHg | MBP (mean blood pressure) [1, 7]: 108.9 ± 3.7 c mmHg | SBP (systolic blood pressure) [1, 7]: 140.5 ± 3.7 a mmHg | DBP (diastolic blood pressure) [1, 8]: 89.5 ± 4.3 b mmHg | MBP (mean blood pressure) [1, 8]: 106.1 ± 3.9 b mmHg | SBP (systolic blood pressure) [1, 8]: 139.4 ± 3.7 mmHg | DBP (diastolic blood pressure) [1, 9]: 83.5 ± 4.6 a mmHg | MBP (mean blood pressure) [1, 9]: 99.7 ± 4.7 mmHg | SBP (systolic blood pressure) [1, 9]: 132.0 ± 5.3 mmHg | DBP (diastolic blood pressure) [1, 10]: 78.8 ± 4.0 mmHg | MBP (mean blood pressure) [1, 10]: 95.2 ± 4.1 mmHg | SBP (systolic blood pressure) [1, 10]: 128.1 ± 4.7 mmHg | Therapeutic response rate, study participants with SDBP < 90 mm Hg ([2]; lercanidipine 5 mg once daily): 32% | Change in SSBP ([2]; lercanidipine 5 mg once daily, confidence interval in parentheses): −9.5 (7.8-11.1) | number of patients who discontinued the study because of an adverse event [2, 11]: 3 | number of patients with any adverse events related to study drug [2, 11]: 8 | Therapeutic response rate, study participants with SDBP < 90 mm Hg ([2]; lercanidipine 10 mg once daily): 40% | Change in SDBP ([2]; lercanidipine 10 mg once daily): −8.2 | Change in SSBP ([2]; lercanidipine 10 mg once daily, confidence interval in parentheses): −10.8 (9.1-12.4) | number of patients who discontinued the study because of an adverse event [2, 12]: 1 | number of patients with any adverse events related to study drug [2, 12]: 10 | Therapeutic response rate, study participants with SDBP < 90 mm Hg ([2]; lercanidipine 20 mg once daily): 59%* | Change in SDBP ([2]; lercanidipine 20 mg once daily): −9.9* | Change in SSBP ([2]; lercanidipine 20 mg once daily, in mm Hg): −13.4* (11.1-15.6) | number of patients who discontinued the study because of an adverse event [2, 13]: 3 | number of patients with any adverse events related to study drug [2, 13]: 10

CCOC(=O)[C@H](CCc1ccccc1)N[C@@H](C)C(=O)N1CCC[C@H]1C(=O)O [enalapril, (S)-1-[N-1-(ethoxycarbonyl)-3-phenylpropyl]-L-alanyl-L-proline]
DBP (diastolic blood pressure) [1, 14]: 69.6 ± 2.1 mmHg | MBP (mean blood pressure) [1, 14]: 83.4 ± 2.1 mmHg | SBP (systolic blood pressure) [1, 14]: 111.0 ± 2.6 mmHg | DBP (diastolic blood pressure) [1, 15]: 65.1 ± 3.5 mmHg | MBP (mean blood pressure) [1, 15]: 80.0 ± 3.9 mmHg | SBP (systolic blood pressure) [1, 15]: 109.9 ± 5.1 mmHg | DBP (diastolic blood pressure) [1, 16]: 124.9 ± 4.3 mmHg | MBP (mean blood pressure) [1, 16]: 142.2 ± 5.4 mmHg | SBP (systolic blood pressure) [1, 16]: 176.8 ± 8.1 mmHg | DBP (diastolic blood pressure) [1, 17]: 109.9 ± 4.1 a mmHg | MBP (mean blood pressure) [1, 17]: 122.0 ± 4.1 b mmHg | SBP (systolic blood pressure) [1, 17]: 146.1 ± 4.5 c mmHg | DBP (diastolic blood pressure) [1, 18]: 107.1 ± 4.5 a mmHg | MBP (mean blood pressure) [1, 18]: 119.4 ± 4.2 b mmHg | SBP (systolic blood pressure) [1, 18]: 143.9 ± 4.1 b mmHg | DBP (diastolic blood pressure) [1, 19]: 95.9 ± 7.9 b mmHg | MBP (mean blood pressure) [1, 19]: 109.0 ± 7.4 c mmHg | SBP (systolic blood pressure) [1, 19]: 135.4 ± 6.6 b mmHg | DBP (diastolic blood pressure) [1, 20]: 86.5 ± 8.5 b mmHg | MBP (mean blood pressure) [1, 20]: 100.5 ± 8.0 b mmHg | SBP (systolic blood pressure) [1, 20]: 128.5 ± 7.6 a mmHg | DBP (diastolic blood pressure) [1, 21]: 78.9 ± 7.6 a mmHg | MBP (mean blood pressure) [1, 21]: 93.7 ± 7.2 a mmHg | SBP (systolic blood pressure) [1, 21]: 123.4 ± 6.9 mmHg | p value on mean blood pressure vs lercanidipine ([1]; three-way ANOVA, reperfusion time 125-180 min, lercanidipine 10 μg/kg, enalapril 100 μg/kg i.v.): p < 0.001 | Therapeutic response rate, study participants with SDBP < 90 mm Hg ([2]; enalapril 5 mg once daily): 28% | Change in SDBP ([2]; enalapril 5 mg once daily): −7.7 | Change in SSBP ([2]; enalapril 5 mg once daily, confidence interval in parentheses): −9.6 (8.1-11.2) | number of patients who discontinued the study because of an adverse event [2, 22]: 1 | number of patients with any adverse events related to study drug [2, 22]: 9 | Therapeutic response rate, study participants with SDBP < 90 mm Hg ([2]; enalapril 10 mg once daily): 43% | Change in SDBP ([2]; enalapril 10 mg once daily): −8.8 | Change in SSBP ([2]; enalapril 10 mg once daily, confidence interval in parentheses): −11.1 (9.1-13.2) | number of patients who discontinued the study because of an adverse event [2, 23]: 1 | number of patients with any adverse events related to study drug [2, 23]: 12
